Experimental data from US9771625B2, “Monoamine oxidase inhibitors and methods for treatment and diagnosis of prostate cancer” (UNIVERSITY OF SOUTHERN CALIFORNIA, priority 2011, dated 2017).

Tests used:
[1] = system: tumor xenografts and spontaneous tumors in transgenic mice; settings: cited from earlier work
live cells = assay: Preliminary imaging study of IR-783 dye in live cells; assay type: cell-based
Description: (§1) An imaging study with the newly synthesized MHI-clorgyline 10 was carried out (FIG. 11).

MAO A = target: T1, MAO A (Homo sapiens, UniProt P21397); assay: MAO A inhibition assay in C4-2B cells with radiolabeled substrate (C-14 serotonin); assay type: cell-based
T1 construct: This cell line was selected due to its high levels of the expressed MAO-A; endogenous in cells; host or cells: C4-2B human prostate cancer cells
T1 sequence (P21397 1-527): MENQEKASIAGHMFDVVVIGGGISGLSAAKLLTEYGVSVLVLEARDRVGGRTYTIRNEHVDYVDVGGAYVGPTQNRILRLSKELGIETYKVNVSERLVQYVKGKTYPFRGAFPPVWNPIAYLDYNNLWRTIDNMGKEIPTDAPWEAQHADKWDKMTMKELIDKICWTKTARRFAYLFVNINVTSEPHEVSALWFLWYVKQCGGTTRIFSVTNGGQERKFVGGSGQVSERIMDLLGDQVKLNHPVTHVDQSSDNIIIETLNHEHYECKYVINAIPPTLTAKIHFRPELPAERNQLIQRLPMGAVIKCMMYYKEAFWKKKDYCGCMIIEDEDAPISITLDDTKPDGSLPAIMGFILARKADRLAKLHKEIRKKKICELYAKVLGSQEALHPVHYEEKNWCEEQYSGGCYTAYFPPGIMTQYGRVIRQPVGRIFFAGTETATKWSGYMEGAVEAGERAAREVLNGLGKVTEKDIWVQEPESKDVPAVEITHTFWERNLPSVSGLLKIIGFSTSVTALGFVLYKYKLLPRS
Description: Compound 10 was pre-incubated with 1×10^6 prostate C4-2B cells at 37° C. for 20 min. Then, MAO A substrate C-14 serotonin was added to the incubation solution for 37° C. 20 min. At the end of the incubation, the reaction product was extracted and the radioactivity was counted. The MAO-A activity was expressed as […] product formed/20 min/mg protein. The activity without the presence of inhibitor, compound 10, was taken as 100%.
In order to test an inhibitory activity of the MHI-clorgyline 10, a standard MAO A inhibition assay was carried out in C4-2B cells using radiolabeled substrates.

[2] = system: C4-2B prostate cancer cells; assay: Laser-scanning confocal NIR imaging of cellular uptake and localization; assay type: cell-based, human; settings: C4-2B PCa cells
Text: Moreover, the two dyes also have strong emission at 820-860 nm upon excitation at 750-780 nm, which can be easily detected and visualized by NIR imaging equipment and laser-scanning confocal microscopes. Here, we resorted to the use of Zeiss LSM 510 confocal microscope as the imaging equipment. Although cellular uptake of the conjugate was uncertain, due to the similarity in structure, MHI-clorgyline conjugates were expected to have similar fluorescence properties as the NIR dye itself. Therefore, NIR imaging with laser-scanning confocal microscope was used to examine the cellular uptake of MHI-clorgyline in human prostate epithelial cancer cells (C4-2B). This cell line was selected due to its high levels of the expressed MAO-A.
as §1

[3] = system: control and MAO-A-overexpressing PC-3 tumor xenografts; assay: In vivo and ex vivo MHI-148 NIR imaging of PC-3 tumor xenografts; parameters: species or system nude mice
Text: FIG. 19 MAO-A enhanced NIR dye uptake in PC-3 tumor xenografts. (A) Representative in vivo MHI-148 NIR imaging (i.p. injection, 10 nmol/20 g) of nude mice subcutaneously implanted with control (left flank) and MAO-A-overexpressing (right flank) PC-3 cells. Arrows point to tumor xenografts. […] (C) Quantitation of tumor NIR intensity in (A) by determining total emission divided by tumor weight (5 mice). *, p<0.05.
A class of fluorescent heptamethine cyanines with near-infrared (NIR) emission maxima, such as MHI-148 dye, which has been identified recently, are non-toxic and have dual functions as tumor-specific targeting and imaging modalities. These dyes, partially mediated by hypoxia, are specifically retained in cancer but not normal cells, and also in tumor xenografts as well as spontaneous tumors in transgenic mice. […] This would allow the development and validation of novel PCa-seeking MAO-A inhibitors with acquired synergistic tumor-targeting abilities as new agents for PCa therapies with minimal systemic host toxicity.

tumor xenografts = assay: Growth of tumor xenografts in vivo
Text: (§2) In the present invention, it was unexpectedly discovered that increase of MAO-A activity or expression is correlated with the progression of human prostate cancer. […] This finding establishes MAOs as a target for cancer.

[4] = system: human prostate cancer cells; assay: Growth of prostate cancer cells in vitro; assay type: cell-based
Text: as §2

In the case of `CC1(C)C(=CC=C2CCCC(C=CC3=[N+](CCCCS(=O)(=O)[O-])c4ccccc4C3(C)C)=C2Cl)N(CCCCS(=O)(=O)[O-])c2ccccc21.[Na+]` [IR-783], the “retention in cancer cells versus normal cells” value [1] is given as “retained in cancer cells but not normal cells” and the subcellular localization (live cells) is given as “co-localized in mitochondria”.
With `C#CCN(CCCOc1ccc(Cl)cc1Cl)CCCSC(=O)CCCCCN1/C(=C\C=C2/CCCC(/C=C/C3=[N+](CCCCCC(=O)O)c4ccccc4C3(C)C)=C2Cl)C(C)(C)c2ccccc21` [Compound 10] the IC50 (MAO A; 37° C., 20 min pre-incubation, C-14 serotonin substrate) was 21.8 µM, the “MAO A inhibitory activity compared with clorgyline” value (MAO A; data not shown) was “lesser than that of clorgyline itself” and the subcellular localization ([2]; co-staining with mitochondria-specific dye) was “localized in the mitochondria”. For the same molecule, the cellular accumulation ([2]; confocal imaging) was “rapid accumulation”.
In the case of `CC1(C)C(/C=C/C2=C(Cl)C(=C/C=C3/N(CCCCCC(=O)O)c4ccccc4C3(C)C)/CCC2)=[N+](CCCCCC(=O)O)c2ccccc21` [MHI-148], the “retention in cancer cells versus normal cells” value [1] is given as “retained in cancer cells but not normal cells”, the “NIR dye uptake in tumor xenografts” value ([3]; MAO-A-overexpressing vs control PC-3 xenografts, i.p. injection, 10 nmol/20 g) is given as “enhanced uptake” and the “ex vivo NIR signal in tumor tissues versus organs” value ([3]; ex vivo NIR imaging, nude mice with PC-3 xenografts) is given as “Tumor tissues but not organs displayed strong signals”.
For `C#CCN(C)CCCOc1ccc(Cl)cc1Cl` [clorgyline], the “growth of tumor xenografts” value (tumor xenografts) was “repressing the growth” and the “growth of human prostate cancer cells” value [4] was “repressing the growth”.
